According to patent publication US9023813B2 (Nutek Pharma Ltd., priority 2012, dated 2015):

How the values were obtained:
[1] = tested on: male Sprague Dawley rats; test: Clinical observations of rats during administration of propofol analogs in the pharmacokinetics study; conditions: time post-10 min i.v. infusion; 0.168 mmol/Kg
Procedure: (§1) Blood samples were to be taken pre-dose, during dose and post dose at designated intervals, with the blood quickly processed and stored at −70° C. until analysis.
(§2) Formulations were prepared on the morning of the dosing day and each was passed through a 0.22 μm filter prior to being administered to animals. A standard dose of 0.168 mmol/Kg per analog was administered to each of the rats. […] Analog stability in the formulations was verified by preparing each formulation and harvesting 200 μL aliquots at 0, 1, 2 and 8 hr while standing at room temperature. After harvesting, each sample was immediately frozen in dry ice until analysis; concentrations of test compounds in the samples were examined by HPLC-UV.
(§3) The animals were surgically prepared with indwelling cannula, double cannulation in carotid artery and jugular vein for i.v. infusion. The anesthetic pentobarbital was used during the surgery, and the animals were allowed to recover 3-5 days after surgery before the formulation was dosed. The dose formulation was administered intravenously via the jugular vein cannula. The 16.8 μmol/mL formulation was administered i.v. at a rate of 1 mL/Kg/min for 10 min.

[2] = Pharmacokinetics: plasma concentrations of prodrug and propofol after intravenous infusion (LC/MS/MS); conditions: for Mean concentration of prodrug and propofol in rat plasma after intravenous infusion administration / AUCinf / MRTinf / Cmax / Tmax / t1/2 / AUClast / CLp / Vdss: analyte = administered compound; for AUCinf / MRTinf: extrapolated to infinity; for Cmax / Tmax / t1/2: rat plasma, IV infusion; for AUClast: to last detected concentration; for CLp: total body clearance, dose/AUCinf; for Vdss: volume of distribution; for Mean Concentration of Propofol in Rat Plasma After Intravenous Administration: analyte = propofol released from the administered compound; for Pro-drug behaviour (release of propofol in vivo): rats, releasing the propofol in a matter of minutes after infusion
Procedure: as §1, §2, §3
Approximately 0.20 mL blood was collected at each designated time point from carotid artery via a catheter. A total of 12 plasma samples were taken from each animal: 1 pre-dose; 2 during the dose (5 into the 10 min infusion and one just prior termination of the 10 min infusion) and 9 post-infusion at 2, 5, 15, 30 min and 1, 2, 3, 4, and 6 hr post-dose. All blood samples were transferred into plastic microcentrifuge tubes containing 5 μL of K2-EDTA (0.5M) as anti-coagulant and placed on ice until processed for plasma. Blood samples were processed for plasma by centrifugation at approximately 5° C. Plasma samples were then stored in 1.5 mL tubes, quick frozen over dry ice and kept at −70±10° C. until LC/MSMS analysis.
For each, a minimum of 6 standard point curve runs in duplicates, and minimum of 5 standards were back calculated to within ±20% of their nominal concentrations. The LLOQ of each test article in plasma was established and 6 QC samples were included in assay runs of samples to ensure assay performance.
Data Analysis. Plasma concentration versus time data was analyzed by non-compartmental approaches using the WinNonlin software program (version 5.2, Pharsight, Mountain View, Calif.) and the pharmacokinetic parameters T½, CL, Vss, AUC(0-t), AUC(0-inf), MRT, and graphs of plasma concentration versus time calculated for each.

[3] = Solubility determination in D2O by 1H NMR with DSS internal standard; conditions: for solubility: D2O, water, thermodynamic from solid
Procedure: Thus the soapy-like solutions obtained were diluted until opalescent and diluted further until the opalescence visually disappeared.

SMILES | Rats recovered at [1] | Mean concentration of prodrug and propofol in rat plasma after intravenous infusion administration ([2]; Time (h) 0) | Mean concentration of prodrug and propofol in rat plasma after intravenous infusion administration ([2]; Time (h) 0.083) | Mean concentration of prodrug and propofol in rat plasma after intravenous infusion administration ([2]; Time (h) 0.167) | Mean concentration of prodrug and propofol in rat plasma after intravenous infusion administration ([2]; Time (h) 0.2) | Mean concentration of prodrug and propofol in rat plasma after intravenous infusion administration ([2]; Time (h) 0.25) | Mean concentration of prodrug and propofol in rat plasma after intravenous infusion administration ([2]; Time (h) 0.417) | Mean concentration of prodrug and propofol in rat plasma after intravenous infusion administration ([2]; Time (h) 0.667) | Mean concentration of prodrug and propofol in rat plasma after intravenous infusion administration ([2]; Time (h) 1.166) | Mean concentration of prodrug and propofol in rat plasma after intravenous infusion administration ([2]; Time (h) 2.166) | Mean concentration of prodrug and propofol in rat plasma after intravenous infusion administration ([2]; Time (h) 3.166) | Mean concentration of prodrug and propofol in rat plasma after intravenous infusion administration ([2]; Time (h) 4.166) | Mean concentration of prodrug and propofol in rat plasma after intravenous infusion administration ([2]; Time (h) 6.166) | AUCinf [2] | MRTinf [2] | Cmax [2] | AUClast [2] | Mean Concentration of Propofol in Rat Plasma After Intravenous Administration ([2]; Time (h) 0) | Pro-drug behaviour (release of propofol in vivo) [2] | Relative solubility [3] | other results
CC(C)c1cccc(C(C)C)c1OC(=O)OCCCO[C@@H]1O[C@H](CO)[C@@H](OC2O[C@H](CO)[C@@H](O)[C@H](O)[C@H]2O)[C@H](O)[C@H]1O (stereo partly drawn) [Compound 25] | recovered at about 35 min | BQL | 34401 nM | 68360 nM | 22658 nM | 9074 nM | 997 nM | 97.1 nM | 16.2 nM | 2.09 nM | BQL | BQL | BQL | 8.574 µM·h | 4.62 min | 68400 nM | 8.571 µM·h | BQL | very efficient pro-drugs | >20 | Rats soporous at [1]: Rats soporous at about 7 min and; Tmax [2]: 10.2 min; t1/2 [2]: 15.2 min; CLp [2]: 20.2 L/h/kg; Vdss [2]: 1.51 L/kg; solubility [3]: > 20 mM
CC(C)c1cccc(C(C)C)c1OC(=O)OCCCO[C@@H]1O[C@H](CO)[C@@H](O)[C@H](O)[C@H]1O [Compound 12] | recovered at about 30 min | BQL | 4.11 nM | 6.78 nM | BQL | BQL | BQL | BQL | BQL | BQL | BQL | BQL | BQL | 0.00122 µM·h | 6 min |  | 0.000773 µM·h | BQL | very efficient pro-drugs | 5.0 | Mean Concentration of Propofol in Rat Plasma After Intravenous Administration ([2]; Time (h) 4.166): BQL; Mean Concentration of Propofol in Rat Plasma After Intravenous Administration ([2]; Time (h) 6.166): BQL
CC(C)c1cccc(C(C)C)c1OC(=O)OCCO[C@@H]1O[C@H](CO)[C@@H](OC2O[C@H](CO)[C@@H](O)[C@H](O)[C@H]2O)[C@H](O)[C@H]1O (stereo partly drawn) [Compound 24] | recovered at about 30 min | BQL | 3200 nM | 7740 nM | 1029 nM | 751 nM | 36 nM | 11.2 nM | 3.01 nM | BQL | 4.2 nM | BQL | BQL | 0.791 µM·h | 12.4 min | 8100 nM | 0.786 µM·h | BQL | very efficient pro-drugs | >20 | Tmax [2]: 8.4 min; t1/2 [2]: 53.2 min; CLp [2]: 348.2 L/h/kg; Vdss [2]: 120 L/kg; solubility [3]: > 20 mM
CC(C)c1cccc(C(C)C)c1OC(=O)OCCO[C@@H]1O[C@H](CO)[C@@H](O)[C@H](O)[C@H]1O [Compound 9] | recovered at about 30 min | BQL | BQL | BQL | BQL | BQL | BQL | BQL | BQL | BQL | BQL | BQL | BQL |  |  |  |  | BQL | very efficient pro-drugs | 8.6 | 
CC(C)c1cccc(C(C)C)c1OC(=O)OCCO[C@H]1O[C@H](CO)[C@@H](O)[C@H](O)[C@H]1O [Compound 32] | recovered at about 26 min | BQL | 4.88 nM | 4.97 nM | 2.68 nM | BQL | BQL | BQL | BQL | BQL | BQL | BQL | BQL |  |  |  | 0.000657 µM·h | BQL | very efficient pro-drugs | 12.0 | 
